Drawing on US8987273B2, “Substituted imidazo[1,2-B]pyridazines” (Bayer Intellectual Property GmbH, priority 2010, dated 2015), this text covers IC50 for ten compounds.

In assay [1] the target is His-tagged human recombinant kinase full-length Akt2 (Homo sapiens (Human), UniProt P31751). As to the kind of experiment: Akt2 kinase assay (TR-FRET). The format is biochemical. Particulars: 10 μM ATP; median. From the text: Akt2 inhibitory activity of compounds of the present invention was quantified employing the Akt2 TR-FRET assay as described in the following paragraphs.
His-tagged human recombinant kinase full-length Akt2 expressed in insect cells and activated by PDK1 was purchased form Invitrogen (part number PV 3975). As substrate for the kinase reaction the biotinylated peptide biotin-Ahx-[…] (C-terminus in amide form) was used which can be purchased e.g. from the company Biosynthan GmbH (Berlin-Buch, Germany).
(§1) For the assay 50 nl of a 100 fold concentrated solution of the test compound in DMSO was pipetted into a black low volume 384 well microtiter plate (Greiner Bio-One, Frickenhausen, Germany), 2 μl of a solution of Akt2 in assay buffer [50 mM TRIS/HCl pH 7.5, 5 mM MgCl2, 1 mM dithiothreitol, 0.02% (v/v) Triton X-100 (Sigma)] were added and the mixture was incubated for 15 min at 22° C. to allow pre-binding of the test compounds to the enzyme before the start of the kinase reaction. Then the kinase reaction was started by the addition of 3 μl of a solution of adenosine-tri-phosphate (ATP, 16.7 μM=>final conc. in the 5 μl assay volume is 10 μM) and substrate (1.67 μM=>final conc. in the 5 μl assay volume is 1 μM) in assay buffer and the resulting mixture was incubated for a reaction time of 60 min at 22° C. The concentration of Akt2 in the assay was adjusted depending of the activity of the enzyme lot and was chosen appropriate to have the assay in the linear range, typical enzyme concentrations were in the range of about 0.2 ng/μl (final conc. in the 5 μl assay volume).
The reaction was stopped by the addition of 5 μl of a solution of HTRF detection reagents (200 nM streptavidine-XL665 [Cisbio] and 1.5 nM anti-phosho-Serine antibody [Millipore, cat. #35-001] and 0.75 nM LANCE Eu-W 1024 labeled anti-mouse IgG antibody [Perkin Elmer]) in an aqueous EDTA-solution (100 mM EDTA, 0.1%/w/v\ bovine serum albumin in 50 mM HEPES/NaOH pH 7.5).
(§2) The resulting mixture was incubated 1 h at 22° C. to allow the binding of the biotinylated phosphorylated peptide to the streptavidine-XL665 and the antibodies. Subsequently the amount of phosphorylated substrate was evaluated by measurement of the resonance energy transfer from the anti-mouse-IgG-Eu-Chelate to the streptavidine-XL665. Therefore, the fluorescence emissions at 620 nm and 665 nm after excitation at 350 nm was measured in a TR-FRET reader, e.g. a Rubystar (BMG Labtechnologies, Offenburg, Germany) or a Viewlux (Perkin-Elmer). The ratio of the emissions at 665 nm and at […] was taken as the measure for the amount of phosphorylated substrate. The data were normalised (enzyme reaction without inhibitor=0% inhibition, all other assay components but no enzyme=100% inhibition).
(Time-resolved FRET reads energy transfer from a long-lived donor to a nearby acceptor.)

Assay [2] concerns phospho-AKT at S473 in KPL4 breast tumour cell line. As to the kind of experiment: Cellular p-AKT1/2/3-S473 assay. The following applies: KPL4 cells, 2 hours treatment; median; read-out: pAKT-S743 median IC50. Type of assay: cell-based. Here is the method:
The molecular mechanism of action was investigated in a set of experiments to assess the inhibition of the PI3K-AKT-mTOR pathway in responsive cell lines such as KPL4 breast tumour cell line (PIK3CAH1047R, HER2O/E and hormone independent). The phospho-substrates of PI3K-AKT-mTOR axis were used as the read-outs to reflect pathway inhibition. Cells were seeded at 60-80% confluency per well in 96-well cell culture plates. After overnight incubation at 37° C. 5% CO2, cells were treated with compounds and vehicle at 37° C. for 2 hours. […] All measurements where at least done in duplicates and confirmed by independent repetition.
Alternatively pAKT-S473 was measured using the “Akt Duplex” of the MULTI-SPOT® Assay System (Fa. Meso Scale Discovery, Cat# N41100B-1) following manufacturers instructions. Each assay used 20 μg of protein extract and measured total AKT and p-AKT content simultaneously in one well. All measurements where at least done in duplicates and confirmed by independent repetition. Values for P-AKT are expressed as percentage of P-AKT level compared to total-AKT content of the extracts.

The subject of another assay is KPL-4 cells. The experiment in a line: Tumor cell proliferation assay (CellTiter-Glo). The format is cell-based. The following applies: KPL4; 72 h drug exposure. Here is the method:
Compounds were tested in a cell-based assay that measures the capacity of the compounds to inhibit tumour cell proliferation following a 72 h drug exposure. Cell viability is determined using CellTiter-Glow® (CTG, Promega, cat# G757112/3). The CellTiter-Glo® Luminescent Cell Viability Assay is a homogeneous method to determine the number of viable cells in culture. Detection is based on using the luciferase reaction to measure the amount of ATP from viable cells. The amount of ATP in cells correlates with cell viability. Within minutes after a loss of membrane integrity, cells lose the ability to synthesize ATP, and endogenous ATPases destroy any remaining ATP; thus the levels of ATP fall precipitously.
Cells were plated at 3000-5000 cells/well (depending on the cell lines) in 90 μL growth medium on MTPs (Corning; #3603, black plate, clear flat bottom). For each cell line assayed, cells were plated onto a separate plate for determination of […] at t=0 hour and t=72 hour time points. Following overnight incubation at 37° C., chemiluminescence values for the t=0 samples were determined after adding 10 μl medium and 100 μl CTG solution according to manufacture protocol. Plates for the t=72 hour time points were treated with compounds diluted into growth medium at ten times final concentration added in 10 μL to the cell culture plate. Cells were then incubated for 72 hours at 37° C. Chemiluminescence values for the t=72 hour samples were determined. For data analysis, briefly, data from 24 h plate where used to reflect 100% inhibition of growth (“Ci”) and DMSO control for uninhibited growth (“C0”) and analyzed using MTS software package for IC50 and Hill coefficient. Experiments were controlled using a reference compound as standard.

For assay [3], the target named is His-tagged human recombinant kinase full-length Akt1 (Homo sapiens (Human), UniProt P31749). As to the kind of experiment: Akt1 kinase assay (TR-FRET). The format is biochemical. The following applies: 10 μM ATP; median.
Text: Akt1 inhibitory activity of compounds of the present invention was quantified employing the Akt1 TR-FRET assay as described in the following paragraphs. His-tagged human recombinant kinase full-length Akt1 expressed in insect cells was purchased form Invitrogen (part number PV 3599). As substrate for the kinase reaction the biotinylated peptide biotin-Ahx-[…] (C-terminus in amide form) was used which can be purchased e.g. from the company Biosynthan GmbH (Berlin-Buch, Germany).
as §1, with “Akt1” for “Akt2”, “0.05” for “0.2”
The reaction was stopped by the addition of 5 μl of a solution of HTRF detection reagents (200 nM streptavidine-XL665 [Cisbio] and 1.5 nM anti-phosho-Serine antibody [Millipore, cat. #35-001] and 0.75 nM LANCE Eu-W 1024 labeled anti-mouse IgG antibody [Perkin Elmer]) in an aqueous EDTA-solution (100 mM EDTA, 0.1% (w/v) bovine serum albumin in 50 mM HEPES/NaOH pH 7.5).
as §2, with “HTRF” for “TR-FRET”

Sequence of His-tagged human recombinant kinase full-length Akt2 (P31751 whole entry): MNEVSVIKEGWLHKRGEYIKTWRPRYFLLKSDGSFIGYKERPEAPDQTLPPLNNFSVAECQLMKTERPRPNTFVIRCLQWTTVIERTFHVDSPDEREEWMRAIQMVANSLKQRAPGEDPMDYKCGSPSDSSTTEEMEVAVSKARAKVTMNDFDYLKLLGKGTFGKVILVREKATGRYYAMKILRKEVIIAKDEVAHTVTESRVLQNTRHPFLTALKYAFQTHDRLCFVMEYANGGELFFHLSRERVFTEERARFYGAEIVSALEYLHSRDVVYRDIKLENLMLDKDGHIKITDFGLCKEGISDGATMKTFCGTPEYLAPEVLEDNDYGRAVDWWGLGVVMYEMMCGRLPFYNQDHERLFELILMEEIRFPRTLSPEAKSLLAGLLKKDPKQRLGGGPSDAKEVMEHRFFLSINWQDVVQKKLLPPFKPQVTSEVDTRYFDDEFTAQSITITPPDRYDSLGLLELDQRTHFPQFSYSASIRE
Sequence of His-tagged human recombinant kinase full-length Akt1 (P31749 whole entry): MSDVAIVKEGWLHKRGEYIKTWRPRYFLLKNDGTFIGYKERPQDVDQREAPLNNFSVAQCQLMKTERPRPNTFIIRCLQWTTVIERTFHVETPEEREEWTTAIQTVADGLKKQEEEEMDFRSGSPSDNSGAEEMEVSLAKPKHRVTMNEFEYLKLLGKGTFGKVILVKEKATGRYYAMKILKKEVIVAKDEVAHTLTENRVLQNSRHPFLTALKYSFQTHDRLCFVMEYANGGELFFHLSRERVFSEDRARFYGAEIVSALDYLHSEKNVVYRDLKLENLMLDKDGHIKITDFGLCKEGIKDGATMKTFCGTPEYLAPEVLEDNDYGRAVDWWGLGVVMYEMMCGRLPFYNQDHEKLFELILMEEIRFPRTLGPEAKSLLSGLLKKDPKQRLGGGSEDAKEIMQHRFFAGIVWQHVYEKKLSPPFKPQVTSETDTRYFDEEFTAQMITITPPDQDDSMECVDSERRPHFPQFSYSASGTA

`NC1(c2ccc(-c3nn4c(-c5ccc(O)nc5)cnc4cc3-c3ccccc3)cc2)CCC1` [Example 4-13, 5-{6-[4-(1-Amino-cyclobutyl)-phenyl]-7-phenyl-imidazo[1,2-b]pyridazin-3-yl}-pyridin-2-ol]: the IC50 is 0.431 µM in assay [1], 0.16 µM in assay [2], 3.36 µM in the assay with KPL-4 cells and 0.146 µM in assay [3].
`COC(=O)c1ccc(-c2cnc3cc(-c4ccccc4)c(-c4ccc(C5(N)CCC5)cc4)nn23)cn1` [Example 4-14, 5-{6-[4-(1-Amino-cyclobutyl)-phenyl]-7-phenyl-imidazo[1,2-b]pyridazin-3-yl}-pyridine-2-carboxylic acid methyl ester]: the IC50 in assay [1] worked out at 0.115 µM; in assay [2] it was 0.92 µM; in the assay with KPL-4 cells, 6.02 µM; in assay [3], 0.019 µM.
For `CCOC(=O)c1cncc(-c2cnc3cc(-c4ccccc4)c(-c4ccc(C5(N)CCC5)cc4)nn23)c1` [Example 4-17, 5-{6-[4-(1-Amino-cyclobutyl)-phenyl]-7-phenyl-imidazo[1,2-b]pyridazin-3-yl}-nicotinic acid ethyl ester], in that order: 0.11 µM, 0.06 µM, 6.2 µM and 0.007 µM.
Consider `Cc1nc2cc(-c3ccccc3)c(-c3ccc(C4(N)CCC4)cc3)nn2c1-c1cccc(C(N)=O)c1` [Example 5-0, 3-{6-[4-(1-Amino-cyclobutyl)-phenyl]-2-methyl-7-phenyl-imidazo[1,2-b]pyridazin-3-yl}-benzamide], for which the IC50 in assay [1] came out at 16.8 µM; in assay [2], 10 µM; in the assay on KPL-4 cells, 3.85 µM; in assay [3] it was 15 µM.
Take `Cc1nc2cc(-c3ccccc3)c(-c3ccc(C4(N)CCC4)cc3)nn2c1-c1ccc(F)c(CO)c1` [Example 5-1, (5-{6-[4-(1-Amino-cyclobutyl)-phenyl]-2-methyl-7-phenyl-imidazo[1,2-b]pyridazin-3-yl}-2-fluorophenyl)-methanol]: the IC50 is 16.7 µM in assay [1], 10 µM in assay [2], 2.11 µM with KPL-4 cells and 10.1 µM in assay [3].
Take `Cc1nc2cc(-c3ccccc3)c(-c3ccc(C4(N)CCC4)cc3)nn2c1-c1ccc(F)cc1` [Example 5-3, 1-{4-[3-(4-Fluorophenyl)-2-methyl-7-phenyl-imidazo[1,2-b]pyridazin-6-yl]-phenyl}-cyclobutylamine]: the IC50 in assay [1] came out at 5.11 µM; in assay [2], 9.17 µM; with KPL-4 cells, 2.28 µM; in assay [3], 4.43 µM.
Regarding `Cc1nc2cc(-c3ccccc3)c(-c3ccc(C4(N)CCC4)cc3)nn2c1-c1ccc(C(N)=O)cc1` [Example 5-4, 4-{6-[4-(1-Amino-cyclobutyl)-phenyl]-2-methyl-7-phenyl-imidazol[1,2-b]pyridazin-3-yl}-benzamide], the half-inhibitory concentration (IC50) was found to be 4.82 µM in assay [1], 10 µM in assay [2], 2.38 µM in the assay on KPL-4 cells and 12.1 µM in assay [3].
In the case of `Cc1nc2cc(-c3ccccc3)c(-c3ccc(C4(N)CCC4)cc3)nn2c1-c1ccn[nH]1` [Example 5-5, 1-{4-[2-Methyl-7-phenyl-3-(2H-pyrazol-3-yl)-imidazo[1,2-b]pyridazin-6-yl]-phenyl}-cyclobutylamine], the IC50 is 5.23 µM in assay [1], 4.11 µM in assay [2], 3.69 µM in the assay with KPL-4 cells and 2.73 µM in assay [3].
Consider `Cc1cc(-c2c(C)nc3cc(-c4ccccc4)c(-c4ccc(C5(N)CCC5)cc4)nn23)[nH]n1` [Example 5-6, 1-{4-[2-Methyl-7-phenyl-3-(5-methyl-2H-pyrazol-3-yl)-imidazo[1,2-b]pyridazin-6-yl]-phenyl}-cyclobutylamine], for which the IC50 in assay [1] was 17.2 µM; in assay [2], 10 µM; with KPL-4 cells it was 9.22 µM; in assay [3] it was 14.9 µM.
Regarding `NC1(c2ccc(-c3nn4c(-c5ccc(F)cc5)c(Br)nc4cc3-c3ccccc3)cc2)CCC1` [Example 6-0, 1-{4-[2-Bromo-3-(4-fluorophenyl)-7-phenyl-imidazo[1,2-b]pyridazin-6-yl]-phenyl}-cyclobutylamine], the IC50 in assay [1] was 0.041 µM; in assay [2] it was 0.41 µM; with KPL-4 cells, 1.89 µM; in assay [3], 0.068 µM.

As a reminder, the IC50 is the concentration at which inhibition is half-maximal.
